Source: PubChem BioAssay AID256 (DTP/NCI, 2004)
Where “and” joins values, the source holds several entries; their conditions need not be identical. Identical values can stand only once. Toxic doses and inconclusive results are not listed.

Test system: CD2F1 mice, L1210 leukemia ip, survival T/C
Assay: NCI In Vivo Anticancer Drug Screen. Data for tumor model L1210 Leukemia (intraperitoneal) in CD2F1 (CDF1) mice
Conditions: endpoint: mean survival time, higher = longer survival
How it was run: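 Each value reflects a quotient of treated over vehicle control outcomes in mice with a transplanted tumor.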

SMILES: Nc1nncs1
- T/C (dose: 1.0 mg/kg/injection, schedule: Q01DX005 (ip), vehicle: water): 94 % of control
- T/C (dose: 2.0 mg/kg/injection, schedule: Q01DX005 (ip), vehicle: water): 96 % of control
- T/C (dose: 4.0 mg/kg/injection, schedule: Q01DX005 (ip), vehicle: water): 96 % of control
- T/C (dose: 8.0 mg/kg/injection, schedule: Q01DX005 (ip), vehicle: water): 98 % of control
- T/C (dose: 8.0 mg/kg/injection, schedule: Q03HX008 (ip), vehicle: alkali diluted with saline): 123 % of control
- T/C (dose: 8.0 mg/kg/injection, schedule: Q03HX016 (ip), vehicle: alkali diluted with saline): 116 % of control
- T/C (dose: 8.0 mg/kg/injection, schedule: Q03HX024 (ip), vehicle: alkali diluted with saline): 152 % of control
- T/C (dose: 8.0 mg/kg/injection, schedule: Q03HX024 (ip), vehicle: saline): 153 % of control
- T/C (dose: 16.0 mg/kg/injection, schedule: Q01DX005 (ip), vehicle: water): 108 % of control
- T/C (dose: 16.0 mg/kg/injection, schedule: Q01DX005 (iv), vehicle: alkali diluted with saline): 110 % of control
- T/C (dose: 16.0 mg/kg/injection, schedule: Q01DX009 (oral), vehicle: other): 108 % of control
- T/C (dose: 16.0 mg/kg/injection, schedule: Q03HX024 (ip), vehicle: alkali diluted with saline): 194 % of control
- T/C (dose: 23.4 mg/kg/injection, schedule: Q04DX003 (ip), vehicle: water): 103 % of control
- T/C (dose: 32.0 mg/kg/injection, schedule: Q01DX001 (iv), vehicle: alkali diluted with saline): 107 % of control
- T/C (dose: 32.0 mg/kg/injection, schedule: Q01DX009 (ip), vehicle: other): 123 % of control
- T/C (dose: 32.0 mg/kg/injection, schedule: Q01DX009 (ip), vehicle: saline with Tween-80): 120 % of control
- T/C (dose: 32.0 mg/kg/injection, schedule: Q01DX009 (oral), vehicle: other): 107 % of control
- T/C (dose: 32.0 mg/kg/injection, schedule: Q03HX008 (ip), vehicle: saline): 120 % of control
- T/C (dose: 32.0 mg/kg/injection, schedule: Q03HX024 (ip), vehicle: saline): 104 % of control
- T/C (dose: 32.0 mg/kg/injection, schedule: Q04DX003 (ip), vehicle: alkali diluted with saline): 111 % of control
- T/C (dose: 32.0 mg/kg/injection, schedule: Q04DX003 (ip), vehicle: other): 106 % of control
- T/C (dose: 39.0 mg/kg/injection, schedule: Q04DX003 (ip), vehicle: water): 117 % of control and 105 % of control
- T/C (dose: 50.0 mg/kg/injection, schedule: Q04DX003 (ip), vehicle: water): 106 % of control
- T/C (dose: 62.5 mg/kg/injection, schedule: Q04DX003 (ip), vehicle: water): 103 % of control and 107 % of control
- T/C (dose: 64.0 mg/kg/injection, schedule: Q01DX001 (ip), vehicle: alkali diluted with saline): 112 % of control
- T/C (dose: 64.0 mg/kg/injection, schedule: Q01DX001 (ip), vehicle: other): 109 % of control
- T/C (dose: 64.0 mg/kg/injection, schedule: Q01DX001 (iv), vehicle: alkali diluted with saline): 112 % of control
- T/C (dose: 64.0 mg/kg/injection, schedule: Q01DX001 (oral), vehicle: alkali diluted with saline): 111 % of control
- T/C (dose: 64.0 mg/kg/injection, schedule: Q01DX001 (oral), vehicle: other): 94 % of control
- T/C (dose: 64.0 mg/kg/injection, schedule: Q01DX001 (sc), vehicle: alkali diluted with saline): 115 % of control
- T/C (dose: 64.0 mg/kg/injection, schedule: Q01DX009 (ip), vehicle: other): 103 % of control
- T/C (dose: 64.0 mg/kg/injection, schedule: Q01DX009 (ip), vehicle: saline with Tween-80): 104 % of control and 107 % of control
- T/C (dose: 64.0 mg/kg/injection, schedule: Q01DX009 (ip), vehicle: saline): 109 % of control
- T/C (dose: 64.0 mg/kg/injection, schedule: Q01DX009 (oral), vehicle: other): 86 % of control
- T/C (dose: 64.0 mg/kg/injection, schedule: Q03HX024 (ip), vehicle: alkali diluted with saline): 97 % of control
- T/C (dose: 64.0 mg/kg/injection, schedule: Q04DX003 (ip), vehicle: other): 123 % of control
- T/C (dose: 64.0 mg/kg/injection, schedule: Q08DX002 (ip), vehicle: alkali diluted with saline): 114 % of control
- T/C (dose: 64.0 mg/kg/injection, schedule: Q08DX002 (ip), vehicle: other): 105 % of control
- T/C (dose: 65.0 mg/kg/injection, schedule: Q04DX003 (ip), vehicle: water): 123 % of control
- T/C (dose: 100.0 mg/kg/injection, schedule: Q04DX003 (ip), vehicle: water): 119 % of control
- T/C (dose: 125.0 mg/kg/injection, schedule: Q04DX003 (ip), vehicle: water): 119 % of control
- T/C (dose: 128.0 mg/kg/injection, schedule: Q01DX001 (ip), vehicle: other): 119 % of control
- T/C (dose: 128.0 mg/kg/injection, schedule: Q01DX001 (iv), vehicle: alkali diluted with saline): 119 % of control
- T/C (dose: 128.0 mg/kg/injection, schedule: Q01DX001 (oral), vehicle: other): 104 % of control
- T/C (dose: 128.0 mg/kg/injection, schedule: Q01DX001 (sc), vehicle: alkali diluted with saline): 120 % of control
- T/C (dose: 128.0 mg/kg/injection, schedule: Q01DX009 (sc), vehicle: alkali diluted with saline): 96 % of control
- T/C (dose: 128.0 mg/kg/injection, schedule: Q08DX002 (ip), vehicle: alkali diluted with saline): 124 % of control
- T/C (dose: 128.0 mg/kg/injection, schedule: Q08DX002 (ip), vehicle: other): 116 % of control
- T/C (dose: 180.0 mg/kg/injection, schedule: Q04DX003 (ip), vehicle: water): 159 % of control
- T/C (dose: 200.0 mg/kg/injection, schedule: Q04DX003 (ip), vehicle: water): 124 % of control
- T/C (dose: 250.0 mg/kg/injection, schedule: Q04DX003 (ip), vehicle: water): 156 % of control
- T/C (dose: 256.0 mg/kg/injection, schedule: Q01DX001 (ip), vehicle: other): 118 % of control
- T/C (dose: 256.0 mg/kg/injection, schedule: Q01DX001 (oral), vehicle: other): 108 % of control
- T/C (dose: 256.0 mg/kg/injection, schedule: Q01DX005 (iv), vehicle: alkali diluted with saline): 150 % of control
- T/C (dose: 256.0 mg/kg/injection, schedule: Q01DX009 (ip), vehicle: alkali diluted with saline): 87 % of control
- T/C (dose: 256.0 mg/kg/injection, schedule: Q04DX003 (ip), vehicle: alkali diluted with saline): 163 % of control
- T/C (dose: 256.0 mg/kg/injection, schedule: Q04DX003 (ip), vehicle: other): 157 % of control
- T/C (dose: 300.0 mg/kg/injection, schedule: Q04DX003 (ip), vehicle: water): 161 % of control and 176 % of control
- T/C (dose: 512.0 mg/kg/injection, schedule: Q01DX001 (oral), vehicle: other): 111 % of control
- T/C (dose: 512.0 mg/kg/injection, schedule: Q04DX003 (ip), vehicle: alkali diluted with saline): 182 % of control
- T/C (dose: 512.0 mg/kg/injection, schedule: Q04DX003 (ip), vehicle: other): 168 % of control
- T/C (dose: 512.0 mg/kg/injection, schedule: Q08DX002 (ip), vehicle: alkali diluted with saline): 151 % of control
- T/C (dose: 833.0 mg/kg/injection, schedule: Q04DX003 (ip), vehicle: water): 182 % of control
- T/C (dose: 1024.0 mg/kg/injection, schedule: Q01DX001 (ip), vehicle: other): 122 % of control
- T/C (dose: 1024.0 mg/kg/injection, schedule: Q01DX001 (oral), vehicle: alkali diluted with saline): 117 % of control
- T/C (dose: 1024.0 mg/kg/injection, schedule: Q01DX001 (oral), vehicle: other): 109 % of control
- T/C (dose: 1024.0 mg/kg/injection, schedule: Q08DX002 (ip), vehicle: alkali diluted with saline): 160 % of control

SMILES: Cc1cc(C)[nH]c(=S)n1
- T/C (dose: 50.0 mg/kg/injection, schedule: Q01DX009 (ip), vehicle: saline with Tween-80): 100 % of control
- T/C (dose: 100.0 mg/kg/injection, schedule: Q01DX009 (ip), vehicle: saline with Tween-80): 96 % of control
- T/C (dose: 200.0 mg/kg/injection, schedule: Q01DX009 (ip), vehicle: saline with Tween-80): 96 % of control

SMILES: CCN(CC)CCNc1cc(C)nc(/N=C(\N)Nc2ccc(Br)c(C(F)(F)F)c2)n1
- T/C (dose: 100.0 mg/kg/injection, schedule: Q04DX003 (ip), vehicle: saline with Tween-80): 98 % of control

SMILES: COc1ccc2[nH]c3c(C)c4cc[n+](C)cc4c(C)c3c2c1
- T/C (dose: 3.13 mg/kg/injection, schedule: Q01DX009 (ip), vehicle: saline): 120 % of control
- T/C (dose: 6.25 mg/kg/injection, schedule: Q01DX009 (ip), vehicle: saline with Tween-80): 122 % of control
- T/C (dose: 6.25 mg/kg/injection, schedule: Q01DX009 (ip), vehicle: saline): 120 % of control
- T/C (dose: 6.25 mg/kg/injection, schedule: Q04DX003 (ip), vehicle: saline with Tween-80): 105 % of control
- T/C (dose: 12.5 mg/kg/injection, schedule: Q01DX009 (ip), vehicle: saline with Tween-80): 87 % of control
- T/C (dose: 12.5 mg/kg/injection, schedule: Q01DX009 (ip), vehicle: saline): 110 % of control
- T/C (dose: 12.5 mg/kg/injection, schedule: Q04DX003 (ip), vehicle: saline with Tween-80): 108 % of control
- T/C (dose: 25.0 mg/kg/injection, schedule: Q04DX003 (ip), vehicle: saline sonified): 116 % of control
- T/C (dose: 25.0 mg/kg/injection, schedule: Q04DX003 (ip), vehicle: saline with Tween-80): 101 % of control
- T/C (dose: 37.5 mg/kg/injection, schedule: Q04DX003 (ip), vehicle: saline sonified): 86 % of control
